Data published in article PMC11783400, “Assessment of Potential Drug–Drug Interactions for Novel Oral Melanocortin‐1 Receptor Agonist Dersimelagon” (Pharmacology Research & Perspectives, 2025).

What was measured:
MATE2‐K = target: T1, MATE2‐K (Homo sapiens, UniProt Q86VL8); assay: uptake inhibition in HEK293 cells expressing the transporter; type: cell-based
T1 construct: gene SLC47A2; expressed in HEK293 cells
Excerpt: uptake inhibition in HEK293 cells expressing the transporter on MATE2‐K

P‐gp (P‐glycoprotein) = target: T2, P‐gp (P‐glycoprotein) (Homo sapiens, UniProt P08183); assay: transport inhibition in Caco-2 monolayers; type: cell-based
T2 construct: gene ABCB1; endogenous transporter in Caco-2 cell monolayers
T2 sequence (P08183 whole entry): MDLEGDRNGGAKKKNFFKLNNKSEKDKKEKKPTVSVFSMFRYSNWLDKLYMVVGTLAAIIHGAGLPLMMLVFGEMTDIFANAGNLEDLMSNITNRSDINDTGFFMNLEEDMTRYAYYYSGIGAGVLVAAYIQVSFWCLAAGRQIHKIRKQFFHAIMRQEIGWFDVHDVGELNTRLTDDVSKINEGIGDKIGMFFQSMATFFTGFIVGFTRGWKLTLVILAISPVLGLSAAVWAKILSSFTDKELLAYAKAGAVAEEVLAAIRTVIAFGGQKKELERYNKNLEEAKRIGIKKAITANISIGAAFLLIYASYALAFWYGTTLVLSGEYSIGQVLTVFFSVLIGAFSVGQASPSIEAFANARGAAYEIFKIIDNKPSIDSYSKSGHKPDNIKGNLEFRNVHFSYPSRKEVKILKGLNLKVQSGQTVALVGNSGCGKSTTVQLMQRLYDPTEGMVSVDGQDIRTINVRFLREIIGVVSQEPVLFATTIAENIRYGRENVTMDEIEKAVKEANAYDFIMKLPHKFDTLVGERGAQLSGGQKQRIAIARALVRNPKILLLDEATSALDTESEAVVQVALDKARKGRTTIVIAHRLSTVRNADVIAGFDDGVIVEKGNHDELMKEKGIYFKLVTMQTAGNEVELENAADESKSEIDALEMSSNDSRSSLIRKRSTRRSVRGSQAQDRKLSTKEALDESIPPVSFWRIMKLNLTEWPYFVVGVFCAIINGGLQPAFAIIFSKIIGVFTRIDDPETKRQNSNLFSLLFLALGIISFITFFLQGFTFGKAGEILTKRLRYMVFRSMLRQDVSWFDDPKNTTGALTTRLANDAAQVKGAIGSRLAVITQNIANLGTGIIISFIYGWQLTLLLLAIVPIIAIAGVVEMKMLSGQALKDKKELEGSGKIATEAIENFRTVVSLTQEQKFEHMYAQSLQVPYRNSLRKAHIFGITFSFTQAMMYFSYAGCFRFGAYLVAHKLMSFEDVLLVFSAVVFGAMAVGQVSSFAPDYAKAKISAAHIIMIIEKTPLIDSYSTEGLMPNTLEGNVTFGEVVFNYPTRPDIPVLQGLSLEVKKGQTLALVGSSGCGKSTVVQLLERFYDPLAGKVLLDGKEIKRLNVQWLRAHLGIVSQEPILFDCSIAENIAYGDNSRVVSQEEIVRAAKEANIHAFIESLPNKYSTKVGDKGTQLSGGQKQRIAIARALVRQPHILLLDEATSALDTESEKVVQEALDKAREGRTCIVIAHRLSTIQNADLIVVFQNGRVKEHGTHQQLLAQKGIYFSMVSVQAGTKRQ
Excerpt: transport inhibition in Caco-2 monolayers on P‐gp (P‐glycoprotein)

CYP2C9 = target: T3, CYP2C9 (Homo sapiens, UniProt P11712); assay: CYP activity inhibition in human liver microsomes; type: biochemical
T3 construct: native enzyme in human liver microsomes
T3 sequence (P11712 whole entry): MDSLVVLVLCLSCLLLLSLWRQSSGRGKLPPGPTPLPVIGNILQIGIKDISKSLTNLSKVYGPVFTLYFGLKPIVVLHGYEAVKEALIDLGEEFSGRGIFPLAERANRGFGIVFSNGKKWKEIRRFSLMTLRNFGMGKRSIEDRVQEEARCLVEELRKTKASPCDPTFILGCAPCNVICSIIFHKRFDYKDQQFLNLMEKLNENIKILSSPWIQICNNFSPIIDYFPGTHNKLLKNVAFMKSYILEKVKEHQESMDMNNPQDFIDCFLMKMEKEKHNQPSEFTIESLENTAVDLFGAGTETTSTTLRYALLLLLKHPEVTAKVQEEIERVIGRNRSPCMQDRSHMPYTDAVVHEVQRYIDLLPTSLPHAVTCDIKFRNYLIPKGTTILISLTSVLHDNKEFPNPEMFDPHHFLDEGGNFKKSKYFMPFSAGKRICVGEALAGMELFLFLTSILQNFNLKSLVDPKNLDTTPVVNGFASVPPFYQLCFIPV
Excerpt: CYP activity inhibition in human liver microsomes on CYP2C9

UGT2B7 = target: T4, UGT2B7 (Homo sapiens, UniProt P16662); assay: glucuronidation inhibition in human liver microsomes; type: biochemical; conditions: substrate 3'-azido-3'-deoxythymidine; direct inhibition
T4 construct: native enzyme in human liver microsomes
T4 sequence (P16662 24-529): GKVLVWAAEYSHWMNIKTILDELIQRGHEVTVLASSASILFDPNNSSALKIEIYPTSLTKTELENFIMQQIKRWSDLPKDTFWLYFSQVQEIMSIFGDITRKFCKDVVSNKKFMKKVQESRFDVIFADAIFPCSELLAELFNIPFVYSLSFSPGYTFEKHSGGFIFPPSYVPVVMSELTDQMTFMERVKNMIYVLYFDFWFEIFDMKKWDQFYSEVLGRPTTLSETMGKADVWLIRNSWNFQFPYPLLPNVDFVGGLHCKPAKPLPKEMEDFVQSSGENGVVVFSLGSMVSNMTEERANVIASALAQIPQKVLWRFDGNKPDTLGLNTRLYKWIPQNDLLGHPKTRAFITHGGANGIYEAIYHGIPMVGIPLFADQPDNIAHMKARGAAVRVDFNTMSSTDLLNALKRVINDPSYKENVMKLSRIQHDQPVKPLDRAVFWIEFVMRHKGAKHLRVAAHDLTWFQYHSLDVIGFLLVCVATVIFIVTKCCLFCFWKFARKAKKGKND
Excerpt: glucuronidation inhibition in human liver microsomes on UGT2B7

OAT3 = target: T5, OAT3 (Homo sapiens, UniProt Q8TCC7); assay: uptake inhibition in HEK293 cells expressing the transporter; type: cell-based
T5 construct: gene SLC22A8; expressed in HEK293 cells
T5 sequence (Q8TCC7 1-542): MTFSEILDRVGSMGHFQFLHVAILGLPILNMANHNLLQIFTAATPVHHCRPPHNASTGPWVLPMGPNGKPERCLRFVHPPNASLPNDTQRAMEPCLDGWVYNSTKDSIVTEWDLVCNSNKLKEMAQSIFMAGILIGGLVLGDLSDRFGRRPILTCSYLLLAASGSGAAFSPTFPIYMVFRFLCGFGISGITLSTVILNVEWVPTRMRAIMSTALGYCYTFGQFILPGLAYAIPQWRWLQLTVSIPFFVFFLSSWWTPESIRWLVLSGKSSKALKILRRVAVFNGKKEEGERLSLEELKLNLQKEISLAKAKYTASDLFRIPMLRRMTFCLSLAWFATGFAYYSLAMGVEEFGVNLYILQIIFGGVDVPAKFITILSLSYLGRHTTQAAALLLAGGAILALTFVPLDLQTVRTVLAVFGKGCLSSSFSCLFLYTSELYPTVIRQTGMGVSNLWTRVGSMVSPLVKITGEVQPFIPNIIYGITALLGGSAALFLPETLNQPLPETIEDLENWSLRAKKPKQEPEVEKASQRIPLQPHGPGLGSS
Excerpt: uptake inhibition in HEK293 cells expressing the transporter on OAT3

CYP2D6 = target: T6, CYP2D6 (Homo sapiens, UniProt P10635); assay: CYP activity inhibition in human liver microsomes; type: biochemical; conditions: read-out: IC50 (μM) / Direct inhibition
T6 construct: native enzyme in human liver microsomes
T6 sequence (P10635 whole entry): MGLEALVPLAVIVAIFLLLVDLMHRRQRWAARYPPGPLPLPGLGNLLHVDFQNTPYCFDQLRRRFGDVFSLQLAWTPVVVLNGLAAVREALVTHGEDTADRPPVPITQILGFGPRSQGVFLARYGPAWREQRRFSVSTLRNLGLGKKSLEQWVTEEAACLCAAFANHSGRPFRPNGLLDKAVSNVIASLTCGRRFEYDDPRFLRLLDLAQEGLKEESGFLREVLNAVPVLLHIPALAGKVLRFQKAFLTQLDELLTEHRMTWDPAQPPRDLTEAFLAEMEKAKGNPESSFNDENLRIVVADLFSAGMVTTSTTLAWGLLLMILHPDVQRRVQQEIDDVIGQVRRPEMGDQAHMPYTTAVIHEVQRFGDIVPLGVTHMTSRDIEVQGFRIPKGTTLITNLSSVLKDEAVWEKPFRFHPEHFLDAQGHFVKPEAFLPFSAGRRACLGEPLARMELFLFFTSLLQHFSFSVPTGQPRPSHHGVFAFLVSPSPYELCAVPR
Excerpt: CYP activity inhibition in human liver microsomes on CYP2D6

CYP2C19 = target: T7, CYP2C19 (Homo sapiens, UniProt P33261); assay: CYP activity inhibition in human liver microsomes; type: biochemical; conditions: read-out: IC50 (μM) / Direct inhibition
T7 construct: native enzyme in human liver microsomes
T7 sequence (P33261 whole entry): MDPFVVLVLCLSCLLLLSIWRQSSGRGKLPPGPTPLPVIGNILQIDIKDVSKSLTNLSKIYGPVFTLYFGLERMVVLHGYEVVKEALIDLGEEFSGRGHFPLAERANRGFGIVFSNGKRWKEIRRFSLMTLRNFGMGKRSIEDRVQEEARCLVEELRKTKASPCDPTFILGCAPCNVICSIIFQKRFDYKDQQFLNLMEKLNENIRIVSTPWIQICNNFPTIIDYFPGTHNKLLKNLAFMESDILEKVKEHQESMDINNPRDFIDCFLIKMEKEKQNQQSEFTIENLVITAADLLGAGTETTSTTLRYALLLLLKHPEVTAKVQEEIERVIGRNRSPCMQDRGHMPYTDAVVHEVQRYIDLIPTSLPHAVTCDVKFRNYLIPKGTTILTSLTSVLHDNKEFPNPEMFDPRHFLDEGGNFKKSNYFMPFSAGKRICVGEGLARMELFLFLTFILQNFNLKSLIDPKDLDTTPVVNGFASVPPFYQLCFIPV
Excerpt: CYP activity inhibition in human liver microsomes on CYP2C19

CYP3A4 (Table 1); CYP3A = target: T8, CYP3A4 (Table 1); CYP3A (Homo sapiens, UniProt P08684); assay: time-dependent inactivation in human liver microsomes; type: biochemical; conditions: read-out: Parameters / K I
T8 construct: native enzyme in human liver microsomes
T8 sequence (P08684 2-503): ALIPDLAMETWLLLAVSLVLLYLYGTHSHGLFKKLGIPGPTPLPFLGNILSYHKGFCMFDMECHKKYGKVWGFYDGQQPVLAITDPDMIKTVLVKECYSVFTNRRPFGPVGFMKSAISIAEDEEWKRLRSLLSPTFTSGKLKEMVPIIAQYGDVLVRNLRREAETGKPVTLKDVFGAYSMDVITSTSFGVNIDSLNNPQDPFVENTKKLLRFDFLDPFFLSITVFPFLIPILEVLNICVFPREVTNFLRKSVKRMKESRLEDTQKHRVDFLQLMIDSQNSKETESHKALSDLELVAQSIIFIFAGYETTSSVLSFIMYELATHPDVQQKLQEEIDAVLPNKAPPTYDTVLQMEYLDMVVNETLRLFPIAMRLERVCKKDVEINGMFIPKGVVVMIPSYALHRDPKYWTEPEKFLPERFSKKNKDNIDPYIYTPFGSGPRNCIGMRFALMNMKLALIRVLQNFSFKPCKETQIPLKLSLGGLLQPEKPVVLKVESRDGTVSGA
Excerpt: time-dependent inactivation in human liver microsomes on CYP3A4 (Table 1); CYP3A (text)

OATP1B1 = target: T9, OATP1B1 (Homo sapiens, UniProt Q9Y6L6); assay: uptake inhibition in HEK293 cells expressing the transporter; type: cell-based
T9 construct: gene SLCO1B1; expressed in HEK293 cells
T9 sequence (Q9Y6L6 1-691): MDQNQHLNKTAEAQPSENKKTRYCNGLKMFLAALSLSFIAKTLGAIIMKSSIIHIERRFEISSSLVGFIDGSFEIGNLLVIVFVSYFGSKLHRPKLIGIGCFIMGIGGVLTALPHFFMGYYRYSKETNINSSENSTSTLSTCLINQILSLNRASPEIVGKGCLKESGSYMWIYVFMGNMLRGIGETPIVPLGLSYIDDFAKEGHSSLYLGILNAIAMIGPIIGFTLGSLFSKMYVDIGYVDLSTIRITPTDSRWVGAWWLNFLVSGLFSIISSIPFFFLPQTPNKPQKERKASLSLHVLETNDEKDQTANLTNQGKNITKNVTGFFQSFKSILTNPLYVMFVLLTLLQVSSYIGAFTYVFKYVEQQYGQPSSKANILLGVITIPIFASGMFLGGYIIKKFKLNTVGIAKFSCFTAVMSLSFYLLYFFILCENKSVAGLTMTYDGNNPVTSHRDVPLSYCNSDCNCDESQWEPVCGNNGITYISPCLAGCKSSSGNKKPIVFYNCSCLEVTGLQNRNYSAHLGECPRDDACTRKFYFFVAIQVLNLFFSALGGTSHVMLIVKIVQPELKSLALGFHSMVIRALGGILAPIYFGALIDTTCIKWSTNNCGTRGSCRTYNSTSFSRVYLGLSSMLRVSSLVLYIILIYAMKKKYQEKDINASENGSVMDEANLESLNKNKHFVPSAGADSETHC
Excerpt: uptake inhibition in HEK293 cells expressing the transporter on OATP1B1

T1 sequence (Q86VL8 1-566 isoform Q86VL8-3): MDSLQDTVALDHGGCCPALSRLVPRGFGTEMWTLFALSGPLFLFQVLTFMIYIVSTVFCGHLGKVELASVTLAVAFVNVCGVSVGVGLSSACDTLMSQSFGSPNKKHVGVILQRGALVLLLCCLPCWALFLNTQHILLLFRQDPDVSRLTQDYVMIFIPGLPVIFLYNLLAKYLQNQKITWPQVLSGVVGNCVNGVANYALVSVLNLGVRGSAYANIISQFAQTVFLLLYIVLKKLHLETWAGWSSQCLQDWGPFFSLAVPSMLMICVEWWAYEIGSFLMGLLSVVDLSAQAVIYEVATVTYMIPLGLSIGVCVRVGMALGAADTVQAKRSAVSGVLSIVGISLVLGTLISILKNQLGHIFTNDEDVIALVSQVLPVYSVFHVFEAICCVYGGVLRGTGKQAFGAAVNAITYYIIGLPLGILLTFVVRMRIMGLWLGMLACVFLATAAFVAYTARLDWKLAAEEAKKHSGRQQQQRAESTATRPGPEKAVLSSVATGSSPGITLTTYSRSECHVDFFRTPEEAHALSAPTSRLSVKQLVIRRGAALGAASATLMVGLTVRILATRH

IC50 (MATE2‐K): > 27.4 µM | IC50 (P‐gp (P‐glycoprotein)): 0.349 µM | IC50 (CYP2C9; read-out: IC50 (μM) / Direct inhibition): 9.16 µM | Ki (CYP2C9; read-out: Parameters / K i): 5.13 µM | IC50 (UGT2B7): > 50 µM | IC50 (OAT3): 0.227 µM | IC50 (CYP2D6): > 100 µM | IC50 (CYP2C19): 23.4 µM | KI (inactivation) (CYP3A4 (Table 1); CYP3A): 64.1 µM | IC50 (OATP1B1): 0.158 µM
SMILES: COC[C@H]1CN(C(=O)[C@]2(F)CN(C3CCCC3)C[C@H]2c2ccc(OC)cc2)C[C@@H]1c1ccc(C(F)(F)F)cc1N1CCC(C(=O)O)CC1 [dersimelagon]
